Measurements as given in patent US8614085B2, “Yeast with increased butanol tolerance involving a multidrug efflux pump gene” (Butamax(TM) Advanced Biofuels LLC, priority 2009, dated 2013).
Like-named read-outs stand apart in the source and are kept apart here.

What was measured:
[1] = tested on: homozygous diploid strain containing a PDR5 deletion mutation (strain #32409, S04); experiment: Growth yield (OD600) of homozygous diploid PDR5 deletion strain in YPD medium with butanol; format: cell-based, Saccharomyces cerevisiae; conditions: for OD600 after 23 hours incubation with 1-butanol / OD600 after 24 hours incubation with isobutanol: diploid PDR5 mutant, YPD, 30° C., inoculum OD600 0.01, average +/- SD; for growth yield of strain with the PDR5 deletion compared to BY4743: diploid
[2] = tested on: diploid parental strain BY4743; conditions: YPD, 30° C., inoculum OD600 0.01, average +/- SD
Procedure: The inoculum OD600 was 0.01. The OD600 of each culture was measured after 24 hours incubation on a roller drum at 30° C. Triplicate cultures of each strain were tested. The average and standard deviation of the 24 hour growth yield measurements in each isobutanol concentration are given in Table 5.
The inoculum OD600 was 0.01. The OD600 of each culture was measured after 23 hours incubation on a roller drum at 30° C. Triplicate cultures of each strain were tested.

[3] = tested on: parental strain BY4741; experiment: Growth yield (OD600) of haploid parental strain in YPD medium with isobutanol; format: cell-based, Saccharomyces cerevisiae; conditions: 30° C., inoculum OD600 0.01, average +/- SD
Procedure: (§1) A haploid strain of Saccharomyces cerevisiae containing a PDR5 deletion mutation (strain #2409) was obtained from Open Biosystems (Huntsville, Ala.) The deletion strain was made as part of the Saccharomyces Genome Deletion Project described in Winzeler al. (Science, 285:901-906, (1999)). […] The inoculum OD600 was 0.01. […] Duplicate cultures of each strain were tested.

[4] = tested on: haploid strain containing a PDR5 deletion mutation (strain #2409); experiment: Growth yield (OD600) of haploid PDR5 deletion strain in YPD medium with isobutanol; format: cell-based, Saccharomyces cerevisiae; conditions: for OD600 after 24 hours incubation with isobutanol: haploid PDR5 mutant, YPD, 30° C., inoculum OD600 0.01, average +/- SD; for growth yield of strain with the PDR5 deletion compared to BY4741: haploid, 24 hours
Procedure: as §1

Compound: CCCCO [1-Butanol, 1-butanol]
- OD600 after 23 hours incubation with 1-butanol ([1]; 0.625 % w/v 1-butanol): 3.27 +/− 0.23
- OD600 after 23 hours incubation with 1-butanol ([1]; 0.75 % w/v 1-butanol): 0.40 +/− 0.02
- OD600 after 23 hours incubation with 1-butanol ([1]; 0.875 % w/v 1-butanol): 0.27 +/− 0.01
- growth yield of strain with the PDR5 deletion compared to BY4743 ([1]; 0.625% w/v 1-butanol, 23 hours): 1.4 fold
- growth yield of strain with the PDR5 deletion compared to BY4743 ([1]; 0.75% w/v 1-butanol, 23 hours): 1.3 fold
- growth yield of strain with the PDR5 deletion compared to BY4743 ([1]; 0.875% w/v 1-butanol, 23 hours): 1.2 fold
- OD600 after 23 hours incubation with 1-butanol ([2]; 0.625 % w/v 1-butanol): 2.38 +/− 0.25
- OD600 after 23 hours incubation with 1-butanol ([2]; 0.75 % w/v 1-butanol): 0.30 +/− 0.03
- OD600 after 23 hours incubation with 1-butanol ([2]; 0.875 % w/v 1-butanol): 0.22 +/− 0.01

Compound: CC(C)CO [Isobutanol, isobutanol]
- OD600 after 24 hours incubation with isobutanol ([1]; 0.25 % w/v isobutanol): 7.51 +/− 0.11
- OD600 after 24 hours incubation with isobutanol ([1]; 0.5 % w/v isobutanol): 7.17 +/− 0.12
- OD600 after 24 hours incubation with isobutanol ([1]; 0.75 % w/v isobutanol): 4.91 +/− 0.29
- OD600 after 24 hours incubation with isobutanol ([1]; 0.825 % w/v isobutanol): 1.67 +/− 0.13
- OD600 after 24 hours incubation with isobutanol ([1]; 1 % w/v isobutanol): 0.16 +/− 0.01
- growth yield of strain with the PDR5 deletion compared to BY4743 ([1]; 0.75% w/v isobutanol, 24 hours): 2.7 fold
- growth yield of strain with the PDR5 deletion compared to BY4743 ([1]; 0.825% w/v isobutanol, 24 hours): 8.8 fold
- OD600 after 24 hours incubation with isobutanol ([2]; 0.25 % w/v isobutanol): 7.36 +/− 0.04
- OD600 after 24 hours incubation with isobutanol ([2]; 0.5 % w/v isobutanol): 6.62 +/− 0.24
- OD600 after 24 hours incubation with isobutanol ([2]; 0.75 % w/v isobutanol): 1.84 +/− 0.36
- OD600 after 24 hours incubation with isobutanol ([2]; 0.825 % w/v isobutanol): 0.19 +/− 0.03
- OD600 after 24 hours incubation with isobutanol ([2]; 1 % w/v isobutanol): 0.08 +/− 0.01
- OD600 after 24 hours incubation with isobutanol ([3]; 0.75 % w/v isobutanol): 2.68 +/− 0.07
- OD600 after 24 hours incubation with isobutanol ([3]; 0.875 % w/v isobutanol): 0.692 +/− 0.04
- OD600 after 24 hours incubation with isobutanol ([3]; 1 % w/v isobutanol): 0.09 +/− 0.02
- OD600 after 24 hours incubation with isobutanol ([4]; 0.75 % w/v isobutanol): 4.71 +/− 0.53
- OD600 after 24 hours incubation with isobutanol ([4]; 0.875 % w/v isobutanol): 2.45 +/− 0.42
- OD600 after 24 hours incubation with isobutanol ([4]; 1 % w/v isobutanol): 0.76 +/− 0.13
- growth yield of strain with the PDR5 deletion compared to BY4741 ([4]; 0.75% w/v isobutanol): 1.8 fold
- growth yield of strain with the PDR5 deletion compared to BY4741 ([4]; 0.825% w/v isobutanol): 3.5 fold
- growth yield of strain with the PDR5 deletion compared to BY4741 ([4]; 1% w/v isobutanol): 8 fold
